Experimental data as given in paper PMC8105289 (European journal of medicinal chemistry, 2021).
Marks after values point to notes of the source that are not given here.

Legend:
shake-flask = settings: not told
potentiometric titration = settings: not told
[1] = Parallel artificial membrane permeability assay; settings: for Papp: PAMPA; for PAMPA logPapp: log of the apparent permeability coefficient; for PAMPA % retention (membrane retention): Corning Gentest pre-coated PAMPA plate, HPLC-UV
[2] = logP / logD7.4 by potentiometric titration; settings: for logD: n-octanol/aqueous buffer, pH 7.4; for logP: n-octanol/water
[3] = pKa by potentiometric titration
[4] = logD7.4 by shake-flask method; settings: for logD: n-octanol/aqueous buffer, pH 7.4
[5] = ionic strength adjusted water (0.15 M KCl), pKa, potentiometric titration, Sirius T3, 0.15 M KCl
[6] = ionic strength adjusted water (0.15 M KCl), pKa units higher than the pKa value of 9
[7] = potentiometric titration, Sirius T3, 0.15 M KCl
[8] = potentiometric titration, Sirius T3

Row | SMILES | log partition n-octanol / aqueous buffer pH 7.4 (shake-flask) [log10 concentration ratio] | log partition n-octanol / aqueous buffer pH 7.4 (potentiometric titration) [log10 concentration ratio] | log partition n-octanol / water (0.15 M KCl) (potentiometric titration) [log10 concentration ratio] | Papp [1] [×10⁻⁶ cm/s] | PAMPA logPapp [1] | logD [2] | logP [2] | logD [4] | other results
1 | CN(C)S(=O)(=O)NC1(CCc2ccccc2)CS(=O)C1 (stereo not drawn) | 1.45 |  |  |  |  |  |  |  | 
2 | CS(=O)(=O)NC1(CCc2ccccc2)CS(=O)C1 (stereo not drawn) |  | 0.87 | 0.88±0.02 |  |  |  |  |  | 
3 | O=S1CC(CCc2ccccc2)(NS(=O)(=O)c2ccccc2)C1 (stereo not drawn) | 0.76 |  |  |  |  |  |  |  | 
4 | CC1(NS(=O)(=O)CCc2ccccc2)COC1 [Compound 13, N-(3-Methyloxetan-3-yl)-2-phenylethane-1-sulfonamide] |  | 1.58 | 1.58±0.06 | 6.79 | −5.17 | 1.58 | 1.58 ± 0.06 |  | ΔlogPcyclohexane (ΔlogP; logPoctanol-water − logPcyclohexane-water): 1.87 ± 0.04; ΔlogPheptane (ΔlogP; logPoctanol-water − logPheptane-water): 1.60 ± 0.05; ΔlogPtoluene (ΔlogP; logPoctanol-water − logPtoluene-water): 0.43 ± 0.04
5 | CC(=O)NC1(CCc2ccccc2)CS(=O)(=O)C1 [Compound 14, N-(1,1-Dioxido-3-phenethylthietan-3-yl)acetamide] | 1.18 |  |  | 2.11 | −5.68 |  |  | 1.18 | pKa [3, 5]: > 12
6 | O=S(=O)(NC1(CCc2ccccc2)COC1)c1ccccc1 [Compound 16, N-(3-Phenethyloxetan-3-yl)benzenesulfonamide] | 2.76 |  |  | 7.06 | −5.2 |  |  | 2.76 | PAMPA % retention (membrane retention) [1]: 0.260%
7 | CN(C)S(=O)(=O)NC1(CCc2ccccc2)COC1 [Compound 17, N,N-Dimethyl-[3-(2-phenylethyl)oxetane-3-yl]sulfamoyl-amine] | 1.96 |  |  | 10.2 | −4.99 |  |  | 1.96 | 
8 | CS(=O)(=O)NC1(CCc2ccccc2)CSC1 [Compound 18, N-(3-Phenethylthietan-3-yl)methanesulfonamide] | 2.44 |  |  | 14.6 | −4.8 |  |  | 2.44 | pKa [3, 6]: > 5
9 | O=S(=O)(NC1(CCc2ccccc2)CSC1)c1ccccc1 [Compound 19, N-(3-Phenethylthietan-3-yl)benzenesulfonamide] | 2.96 |  |  |  |  |  |  | 2.96 | pKa [3, 5]: > 12
10 | CN(C)S(=O)(=O)NC1(CCc2ccccc2)CSC1 [Compound 20, N,N-Dimethyl-[3-(2-phenylethyl)thietan-3-yl]sulfamoyl-amine] | 2.83 |  |  | 11.4 | −4.9 |  |  | 2.83 | PAMPA % retention (membrane retention) [1]: 0.373%
11 | CS(=O)(=O)N[C@]1(CCc2ccccc2)C[S@+]([O-])C1 [Compound 21, cis-N-(1-Oxido-3-phenethylthietan-3-yl)methanesulfonamide] |  |  |  |  |  |  |  |  | pKa units higher than the pKa value of 9 [3]: > 5; pKa [3, 7]: 9.87±0.01; logP [2, 8]: 0.88±0.02
12 | CN(C)S(=O)(=O)N[C@]1(CCc2ccccc2)C[S@+]([O-])C1 [Compound 23, cis-3-[(Dimethylsulfamoyl)amino]-3-(2-phenylethyl)-1lambda4-thietan-1-one] |  |  |  |  | −5.47 |  |  |  | pKa [3, 7]: 10.33±0.02; logD7.4 ([4]; n-octanol/aqueous buffer pH 7.4, shake-flask assay run by Analiza): 1.45^†
13 | CS(=O)(=O)NC1(CCc2ccccc2)CS(=O)(=O)C1 [Compound 24, N-(1,1-Dioxido-3-phenethylthietan-3-yl)methanesulfonamide] |  | 1.03 | 1.03±0.01 | 3.66 | −5.4 | 1.03 | 1.03 ± 0.01 |  | pKa [3, 6]: > 5
14 | O=S1(=O)CC(CCc2ccccc2)(NS(=O)(=O)c2ccccc2)C1 [Compound 25, N-(1,1-Dioxido-3-phenethylthietan-3-yl)benzenesulfonamide] | 1.89 |  |  |  |  |  |  | 1.89 | 
15 | CN(C)S(=O)(=O)NC1(CCc2ccccc2)CS(=O)(=O)C1 [Compound 26, 3-[(Dimethylsulfamoyl)amino]-3-(2-phenylethyl)-1lambda6-thietane-1,1-dione] |  | 1.82 | 1.83±0.05 | 4.43 | −5.35 | 1.82 | 1.83 ± 0.05 |  | PAMPA % retention (membrane retention) [1]: 0.105%
16 | CS(=O)(=O)Nc1cc(-c2ccccc2)on1 [Compound 27, N-(5-Phenylisoxazol-3-yl)methanesulfonamide] |  | −0.42 | 0.58±0.02 | 1.16 | −5.94 | -0.42 | 0.58 ± 0.02 |  | 
17 | O=S(=O)(Nc1cc(-c2ccccc2)on1)c1ccccc1 [Compound 28, N-(5-Phenylisoxazol-3-yl)benzenesulfonamide] |  | 0.99 | 1.76±0.03 | 5.79 | −5.24 | 0.99 | 1.76 ± 0.03 |  | 
18 | CN(C)S(=O)(=O)Nc1cc(-c2ccccc2)on1 [Compound 29, N-(5-Phenylisoxazol-3-yl)-N,N-dimethylaminesulfonamide] |  | 0.42 | 0.85±0.01 |  |  |  |  |  | PAMPA % retention (membrane retention) [1]: 0.131%; pKa [3, 7]: 5.62±0.02; logP [2, 8]: 0.85±0.01
19 | CS(=O)(=O)Nc1cn(-c2ccccc2)nn1 [Compound 30, N-(1-Phenyl-1H-1,2,3-triazol-4-yl)methanesulfonamide] |  | 0.06 | 1.16±0.03 | 2.42 | −5.62 | 0.06 | 1.16 ± 0.03 |  | 
20 | O=S(=O)(Nc1cn(-c2ccccc2)nn1)c1ccccc1 [Compound 31, N-(1-Phenyl-1H-1,2,3-triazol-4-yl)benzenesulfonamide] |  | 1.06 | 2.55±0.04 | 4.09 | −5.39 | 1.06 | 2.55 ± 0.04 |  | 
21 | CN(C)S(=O)(=O)Nc1cn(-c2ccccc2)nn1 [Compound 32, N-(1-Phenyl-1H-1,2,3-triazol-4-yl)-N,N-dimethylaminesulfonamide] |  | 0.69 | 1.72±0.01 |  | −5.42 |  |  |  | pKa [3, 7]: 6.42±0.01; logP [2, 8]: 1.72±0.01
